What was measured:
[1] = system: Mycobacterium tuberculosis Erdman (autoluminescent); experiment: GRinf, maximum normalised growth rate inhibition (unitless (-1 to 1)); higher = less effect (negative = killing)
Protocol: (§1)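 DiaMOND dose responses (10 doses, 1.5- or 2-fold spacing, equipotent around IC90) of autoluminescent M. tuberculosis Erdman in 8 in vitro models. Read-out is OD600, or luminescence for the intracellular (J774) and dormancy models, background-subtracted and normalised to untreated wells. A 3-parameter Hill fit gives Einf and AUC25 (area to IC25 normalised by IC25); GRinf comes from a Hill fit of the Hafner normalised growth rate. Biological replicates passing QC are averaged. Single drugs only.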

[2] = system: Mycobacterium tuberculosis Erdman (autoluminescent); experiment: AUC25, normalised area under dose response up to IC25 (fraction (0-1)); higher = more potent at low dose
Protocol: as §1

[3] = system: Mycobacterium tuberculosis Erdman (autoluminescent); experiment: Einf, fitted maximum growth inhibition (fraction); higher = stronger maximal inhibition
Protocol: as §1

[4] = system: Mycobacterium tuberculosis Erdman (autoluminescent); experiment: Einf, fitted maximum growth inhibition of combination (fraction); higher = stronger maximal inhibition
Protocol: (§2)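 DiaMOND equipotent two-drug combination dose responses against autoluminescent M. tuberculosis Erdman in 8 in vitro models. Read-out is OD600, or luminescence for the intracellular and dormancy models, normalised to untreated wells. Hill-fit Einf, AUC25 and GRinf are potency metrics; FIC50 and FIC90 are Loewe-additivity fractional inhibitory concentrations, given as log2 (negative = synergy). Replicates are averaged.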

[5] = system: Mycobacterium tuberculosis Erdman (autoluminescent); experiment: AUC25, normalised area under dose response up to IC25 (fraction (0-1)); higher = more potent at low dose; remark: listed apart in the source
Protocol: as §2

[6] = system: Mycobacterium tuberculosis Erdman (autoluminescent); experiment: FIC90 (Loewe) at 90% inhibition (log2); higher = more antagonistic
Protocol: as §2

[7] = system: Mycobacterium tuberculosis Erdman (autoluminescent); experiment: FIC50 (Loewe) at 50% inhibition (log2); higher = more antagonistic
Protocol: as §2

[8] = system: Mycobacterium tuberculosis Erdman (autoluminescent); experiment: GRinf, maximum normalised growth rate inhibition (unitless (-1 to 1)); higher = less effect (negative = killing); remark: listed apart in the source
Protocol: as §2

CO[C@H]1/C=C/O[C@@]2(C)Oc3c(C)c(O)c4c(O)c(c(/C=N/N5CCN(C)CC5)c(O)c4c3C2=O)NC(=O)/C(C)=C\C=C\[C@H](C)[C@H](O)[C@@H](C)[C@@H](O)[C@@H](C)[C@H](OC(C)=O)[C@@H]1C [rifampicin]
Details | AUC25, [2] | Einf, [3] | GRinf, [1]
in vitro model: acidic pH 5.7, time point: constant (~7 days, model-specific) | 0.0889 | 0.838 | -0.0959
in vitro model: acidic pH 5.7, time point: terminal (~4-5 doublings, model-specific) | 0.0838 | 0.98 | -0.261
in vitro model: intracellular J774, time point: constant = terminal | – | 0.971 | -0.261

Details | AUC25, [2] | Einf, [3] | GRinf, [1]
in vitro model: butyrate, time point: constant (~7 days, model-specific) | 0.112 | 0.892 | 0.0824
in vitro model: butyrate, time point: terminal (~4-5 doublings, model-specific) | 0.1 | 0.956 | 0.0686
in vitro model: cholesterol 0.05 mM, time point: constant (~7 days, model-specific) | 0.093 | 0.503 | 0.296
in vitro model: cholesterol 0.05 mM, time point: terminal (~4-5 doublings, model-specific) | 0.0796 | 0.855 | -0.0493
in vitro model: cholesterol-high 0.2 mM, time point: constant (~7 days, model-specific) | 0.0905 | 0.927 | -0.416
in vitro model: cholesterol-high 0.2 mM, time point: terminal (~4-5 doublings, model-specific) | 0.0772 | 0.999 | -0.773
in vitro model: dormancy (butyrate + nitrate, low O2), time point: constant (~7 days, model-specific) | 0.0684 | 0.901 | 0.176
in vitro model: dormancy (butyrate + nitrate, low O2), time point: terminal (~4-5 doublings, model-specific) | 0.0437 | 0.978 | -0.0601
in vitro model: standard 7H9 glycerol, time point: constant = terminal | 0.0814 | 0.877 | 0.161
in vitro model: valerate, time point: constant (~7 days, model-specific) | 0.0576 | 0.86 | 0.0731
in vitro model: valerate, time point: terminal (~4-5 doublings, model-specific) | 0.0385 | 0.943 | 0.0202

CO[C@H]1/C=C/O[C@@]2(C)Oc3c(C)c(O)c4c(O)c(c(/C=N/N5CCN(C6CCCC6)CC5)c(O)c4c3C2=O)NC(=O)/C(C)=C\C=C\[C@H](C)[C@H](O)[C@@H](C)[C@@H](O)[C@@H](C)[C@H](OC(C)=O)[C@@H]1C [rifapentine]
Details | AUC25, [2] | Einf, [3] | GRinf, [1]
in vitro model: acidic pH 5.7, time point: constant (~7 days, model-specific) | 0.0584 | 0.831 | -0.0781
in vitro model: acidic pH 5.7, time point: terminal (~4-5 doublings, model-specific) | 0.0625 | 0.974 | -0.181
in vitro model: intracellular J774, time point: constant = terminal | – | 0.973 | -0.197

Details | AUC25, [2] | Einf, [3] | GRinf, [1]
in vitro model: butyrate, time point: constant (~7 days, model-specific) | 0.0929 | 0.891 | 0.117
in vitro model: butyrate, time point: terminal (~4-5 doublings, model-specific) | 0.0749 | 0.942 | 0.0762
in vitro model: cholesterol 0.05 mM, time point: constant (~7 days, model-specific) | 0.104 | 0.553 | 0.164
in vitro model: cholesterol 0.05 mM, time point: terminal (~4-5 doublings, model-specific) | 0.065 | 0.861 | -0.00856
in vitro model: cholesterol-high 0.2 mM, time point: constant (~7 days, model-specific) | 0.0607 | 0.877 | -0.186
in vitro model: cholesterol-high 0.2 mM, time point: terminal (~4-5 doublings, model-specific) | 0.053 | 1 | -0.735
in vitro model: dormancy (butyrate + nitrate, low O2), time point: constant (~7 days, model-specific) | 0.0644 | 0.908 | 0.218
in vitro model: dormancy (butyrate + nitrate, low O2), time point: terminal (~4-5 doublings, model-specific) | 0.0566 | 0.989 | -0.11
in vitro model: standard 7H9 glycerol, time point: constant = terminal | 0.0489 | 0.894 | 0.0516
in vitro model: valerate, time point: constant (~7 days, model-specific) | 0.0524 | 0.855 | 0.056
in vitro model: valerate, time point: terminal (~4-5 doublings, model-specific) | 0.0266 | 0.937 | 0.0374

CO[C@H]1/C=C/O[C@@]2(C)Oc3c(C)c(O)c4c(O)c(c(/C=N/N5CCN(C6CCCC6)CC5)c(O)c4c3C2=O)NC(=O)/C(C)=C\C=C\[C@H](C)[C@H](O)[C@@H](C)[C@@H](O)[C@@H](C)[C@H](OC(C)=O)[C@@H]1C [rifapentine] + CO[C@H]1/C=C/O[C@@]2(C)Oc3c(C)c(O)c4c(O)c(c(/C=N/N5CCN(C)CC5)c(O)c4c3C2=O)NC(=O)/C(C)=C\C=C\[C@H](C)[C@H](O)[C@@H](C)[C@@H](O)[C@@H](C)[C@H](OC(C)=O)[C@@H]1C [rifampicin]
Details | AUC25, [5] | Einf, [4] | FIC50, [7] | FIC90, [6] | GRinf, [8]
in vitro model: acidic pH 5.7, time point: constant (~7 days, model-specific) | 0.0835 | 0.837 | 0.179 | – | -0.028
in vitro model: acidic pH 5.7, time point: terminal (~4-5 doublings, model-specific) | 0.0696 | 0.967 | 0.0519 | -0.186 | -0.182
in vitro model: intracellular J774, time point: constant = terminal | – | 0.934 | – | -0.3 | -0.195

Details | AUC25, [5] | Einf, [4] | FIC50, [7] | FIC90, [6] | GRinf, [8]
in vitro model: butyrate, time point: constant (~7 days, model-specific) | 0.101 | 0.887 | 0.0385 | – | 0.0983
in vitro model: butyrate, time point: terminal (~4-5 doublings, model-specific) | 0.0929 | 0.958 | -0.077 | 0.00202 | 0.0599
in vitro model: cholesterol 0.05 mM, time point: constant (~7 days, model-specific) | 0.125 | 0.57 | -0.0632 | – | 0.181
in vitro model: cholesterol 0.05 mM, time point: terminal (~4-5 doublings, model-specific) | 0.085 | 0.883 | -0.246 | 0.16 | -0.0494
in vitro model: cholesterol-high 0.2 mM, time point: constant (~7 days, model-specific) | 0.0915 | 0.921 | -0.073 | 0.413 | -0.231
in vitro model: cholesterol-high 0.2 mM, time point: terminal (~4-5 doublings, model-specific) | 0.0669 | 0.999 | 0.0935 | -0.0799 | -0.64
in vitro model: dormancy (butyrate + nitrate, low O2), time point: constant (~7 days, model-specific) | 0.062 | 0.902 | 0.0837 | -0.356 | 0.162
in vitro model: dormancy (butyrate + nitrate, low O2), time point: terminal (~4-5 doublings, model-specific) | 0.0354 | 0.979 | 0.0345 | -0.0772 | -0.0822
in vitro model: standard 7H9 glycerol, time point: constant = terminal | 0.0721 | 0.907 | 0.198 | 0.54 | 0.101
in vitro model: valerate, time point: constant (~7 days, model-specific) | 0.0488 | 0.815 | 0.231 | – | 0.136
in vitro model: valerate, time point: terminal (~4-5 doublings, model-specific) | 0.0288 | 0.921 | -0.0221 | -0.019 | 0.0885

Source: the supplement of paper PMC8617591
